Laboratory results published in patent publication US20240010729A1, “COMBINATION THERAPY OF A PD-1 ANTAGONIST AND LAG3 ANTAGONIST AND LENVATINIB OR A PHARMACEUTICALLY ACCEPTABLE SALT THEREOF FOR TREATING PATIENTS WITH CANCER” (MERCK SHARP & DOHME LLC, priority 2020, published 2024).

Experiments:
[1] = test system: CT26 colorectal model; experiment: CT26 mouse syngeneic tumor model (tumor growth inhibition, survival); conditions: CT26, Day 17; lenvatinib 10 mg/kg oral QD, antibodies 10 mg/kg i.p. every 5 days
Excerpt: Prior to treatment initiation, female BALB/c mice (for CT26 study) or C57BL/6J mice (for KPC-2838c3 study) aged 8 weeks weighing between 18 to 21 grams were anesthetized and subcutaneously injected into the rear flank with 0.3×10^6 CT26 or 0.5×10^6 KPC-2838c3 log-phase sub-confluent cells. When the mean tumor volume of inoculated animals reached approximately 100 mm^3 (II days later for CT26, 15 days later for KPC-2838c3) mice were pair-matched into 8 treatment groups consisting of 10 mice per group. Treatment groups consisted of: 1) 0.5% methylcellulose (Vehicle)+Isotype mouse IgG1 antibody (migG1); 2) Vehicle+anti-PD-1 mIgG1 antibody (muDX400); 3) Vehicle+anti-LAG3 mIgG1 antibody (28G10); 4) Lenvatinib+isotype; 5) Vehicle+anti-PD-1+anti-LAG3; 6) Lenvatinib+anti-PD-1; 7) Lenvatinib+anti-LAG3; 8) Lenvatinib+anti-PD-1+anti-LAG3. Vehicle and lenvatinib were orally gavage-dosed once daily (QD) at 10 mg/kg body weight. Isotype control, a mouse monoclonal antibody specific for adenoviral hexon of the isotype IgG1, as well as anti-PD-1 and anti-LAG3 antibodies were dosed intraperitoneally every 5 days at 10 mg/kg body weight. Start of treatments was considered Day 0 and dosing based on schedules continued as described until Day 35. Caliper measurements of tumors and body weights were captured twice weekly. […]

[2] = test system: mCRC that is non MSI-H/pMMR; conditions: third line mCRC patients; cited from earlier work

SMILES | TGI (tumor growth inhibition) respective to Vehicle-treated animals [1] [%] | 6-month PFS rate [2] [%]
COc1cc2nccc(Oc3ccc(NC(=O)NC4CC4)c(Cl)c3)c2cc1C(N)=O [Lenvatinib, 4-[3-chloro-4-(cyclopropylaminocarbonyl)aminophenoxy]-7-methoxy-6-quinolinecarboxamide] | 54 | 
CNC(=O)c1cc(Oc2ccc(NC(=O)Nc3ccc(Cl)c(C(F)(F)F)c3)c(F)c2)ccn1 [regorafenib] |  | ~15
